Source: patent US20230126447A1, “OCULAR DRUG DEPOT FOR COMPLEMENT-MEDIATED DISORDERS” (priority 2020, published 2023)
pIC50: −log10 of the molar value.

Assays:
[1] = In vitro binding to synthetic melanin; conditions: synthetic melanin 50 μg/mL, PBS, 37° C., 1 hour
Protocol: (§1) […] The melanin solution was stored in the dark at 37° C. until use.
(§2) Immediately after the assay, samples were added to an equal volume of warm PBS, aliquots (3 μL each) were removed, added to 100 μL of acetonitrile containing carbutamide as internal standard, and then diluted with water (197 μL). These time-zero samples, prepared in PBS only, were also used as calibration standards.
(§3) The assay plates containing samples with and without melanin were incubated in the dark with shaking at 37° C. for 1 hour. Following incubation, the samples were centrifuged for 15 minutes at approximately 4000 rpm at 37° C. to sediment the melanin. Sample supernatant (3 μL) was added to 100 μL of acetonitrile containing the internal standard and then diluted with water (197 μL).
(§4) The column was set to a temperature of 55° C. […]
(§5) Analytes and internal standards were detected using an Applied Biosystems Sciex API-5500 triple quadrupole mass spectrometer with Agilent 1260 Infinity Binary Pump and Apricot Designs ADDA High-Speed Dual Arm Autosampling System. The instrument was equipped with an electrospray ionization source (600° C.) operated in the positive ion mode. Analytes and internal standards for all samples were monitored in the multiple-reaction-monitoring scan mode.

[2] = In vitro binding to melanin from Sepia officinalis; conditions: S. officinalis melanin 50 μg/mL, PBS, 37° C., 1 hour
Protocol: as §1, §2, §3, §4, §5

[3] = Stability under melanin binding assay conditions; conditions: PBS, 37° C., 1 hour vs time zero
Protocol: as §1, §3
% Stability=Mean Total Conc. (μM) after 1 Hour/Mean Total Conc. (μM) at Time Zero×100%

[4] = QWBA tissue distribution of [14C] Compound 2, Long-Evans rats (PO, IV); assay type: in vivo
Protocol: (§6) The study was conducted to determine the tissue distribution of [^14C] Compound 2-derived radioactivity following a single oral gavage (PO) administration of 20 mg/kg (100 μCi/kg) of [^14C] […] Compound 2 to a male Long-Evans rat using quantitative whole body autoradiography (QWBA).
(§7) A total of ten male Long-Evans and three male Wistar Hannover rats were administered a single PO dose of [^14C] […] One male Long-Evans rat was administered a single IV dose of [^14C] […] (See Table 3). One animal per group per strain was anesthetized by inhalation of isoflurane gas at designated time points post-dose, followed by blood collection via cardiac puncture and euthanasia by isoflurane overdose. Each carcass was then frozen in a dry ice/hexane bath. Blood and plasma samples were assayed for total radioactivity (TRA) concentrations by liquid scintillation counting (LSC). The tissue concentrations of TRA were determined using validated QWBA techniques. Pharmacokinetic parameters of derived radioactivity in blood, plasma, and tissues were calculated, to the extent possible, using Phoenix© WinNonlin® (Version 6.3, Pharsight Corporation; Mountain View, Calif.).

[5] = QWBA tissue distribution of [14C] Compound 2, Wistar Hannover rats (PO); assay type: in vivo; conditions: 20 mg/kg PO
Protocol: as §6, §7

[6] = biological target: CFD (Homo sapiens, UniProt P00746); assay: Inhibitory effect on CFD; assay type: biochemical
CFD, sequence (P00746 26-253): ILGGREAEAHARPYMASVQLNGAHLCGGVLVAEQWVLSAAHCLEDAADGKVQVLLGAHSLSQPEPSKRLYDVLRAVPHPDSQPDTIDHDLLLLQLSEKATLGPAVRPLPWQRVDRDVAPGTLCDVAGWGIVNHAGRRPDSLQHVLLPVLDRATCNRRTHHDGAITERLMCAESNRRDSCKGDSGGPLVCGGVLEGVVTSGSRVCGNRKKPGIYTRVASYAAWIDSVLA

[7] = male Long-Evans rats, 20 mg/kg PO
[8] = male Wistar Hannover rats, 1 h post-dose
[9] = male Wistar Hannover rats, 24 h post-dose

## CCN(CC)CCCC(C)Nc1ccnc2cc(Cl)ccc12 (stereo not shown) [Chloroquine, chloroquine, reference compound]
[1]
  Bmax (binding capacity): 308 nmol/mg melanin
[2]
  Bmax (binding capacity): 280 nmol/mg melanin
[3]
  Mean Stability: 87.3%

## CC(=O)c1nn(CC(=O)N2[C@H](C(=O)Nc3nc(Br)ccc3C)C[C@@]3(C)C[C@@H]23)c2ccc(-c3cnc(C)nc3)cc12 [Compound 2, (1R,3S,5R)-2-(2-(3-acetyl-5-(2-methylpyrimidin-5-yl)-1H-indazol-1-yl)acetyl)-N-(6-bromo-3-methylpyridin-2-yl)-5-methyl-2-azabicyclo[3.1.0]hexane-3-carboxamide]
[4]; male Long-Evans rat, 5 mg/kg IV, […] post-dose
  Radioactivity in the central nervous system: 0.201 μg equiv/g tissue
[4]; [7]
  Tissue:plasma AUC0-t ratio, majority of tissues: greater than 1.00
  Tmax, majority of tissues: 1 h
[4]; male Long-Evans rats, 20 mg/kg PO, 48 h post-dose
  Total plasma radioactivity: BLQ
[4]; male Long-Evans rats, 20 mg/kg PO, 72 h post-dose
  Blood concentration of radioactivity: BLQ
[4]; male Long-Evans rats, 20 mg/kg PO, 840 h post-dose
  Concentration of radioactivity, eye and uveal tract: 0.212 μg equiv/g tissue
[5]; Wistar Hannover rat, 1 h post-dose
  Radioactivity in the central nervous system: 0.179 μg equiv/g tissue
[5]; male Wistar Hannover rats
  Tmax, all tissues: 1 h
[5]; [8]
  Tissue to plasma concentration ratio, brain: 0.04
  Tissue to plasma concentration ratio, cecum mucosa: 0.96
  Tissue to plasma concentration ratio, kidney medulla: 12.6
  Tissue to plasma concentration ratio, stomach wall non-glandular: 1.00
[5]; [9]
  Tissue to plasma ratio, bone marrow: 2.90
  Tissue to plasma ratio, stomach wall non-glandular: 100
[5]; male Wistar Hannover rats, 168 h post-dose
  Total plasma radioactivity: BLQ

## CC(=O)c1cn(CC(=O)N2[C@H](C(=O)Nc3nc(Br)ccc3C)C[C@@]3(C)C[C@@H]23)c2c(C)cc(-c3cnc(C)nc3)cc12 [Compound 3, (1R,3S,5R)-2-(2-(3-acetyl-7-methyl-5-(2-methylpyrimidin-5-yl)-1H-indol-1-yl)acetyl)-N-(6-bromo-3-methylpyridin-2-yl)-5-methyl-2-azabicyclo[3.1.0]hexane-3-carboxamide]
[6]
  pIC50: 7.49
